Article PMC11938014, “Development and Application of Small Molecule–Peptide Conjugates as Cathepsin K-Specific Covalent Irreversible Inhibitors in Human Osteoclast and Lung Cancer” (JACS Au, 2025)

How the values were obtained:
CTSS = molecular target: T1, CTSS (Homo sapiens, UniProt P25774); assay: Kinetic evaluation of recombinant cathepsin inhibition, fluorogenic substrate Z-FR-AMC; type: biochemical
T1 construct: made in house
Protocol: (§1) Cathepsin (0.4 nM, CatK) or 5 nM (CatS, CatB, and CatL) were each mixed with inhibitors before adding the fluorogenic substrate. The proteases were then reacted with their substrates, Z-RR-AMC (CatL) or Z-FR-AMC (CatS, CatB, and CatK), for 30 min at 37 °C in the phosphate buffer (100 mM Na2HPO4/NaH2PO4, 50 mM NaCl, 5 mM DTT, 0.1% PEG-6000, at pH 6). Reactions were done in 96-well black flat-bottom microplates (Greiner, Germany); fluorescence (Ex/Em 370 and 460 nm) was measured by a Tecan INFINITE M1000 pro plate reader (Tecan, Switzerland) in the presence of inhibitors or vehicle. For irreversible inhibitors, reaction data were analyzed by using the one-phase association formula in GraphPad Prism 9 software: Y = Y0 + (plateau – Y0) × (1 – exp(−K × X)), where Y0 and Y denote the fluorescence signals at times 0 and t, respectively, K represents the observed reaction rate kobs, and X signifies the […]. The inactivation rates at each inhibitor concentration were determined by subtracting the inactivation observed in the control sample: kobs – kctrl. The maximum inactivation rate (kinact) was derived as the asymptote from the equation Y = kinact × X/(Ki^app + X), where X represents the inhibitor concentration, Y is the observed inactivation rate for each X, and Ki^app is the apparent inhibition constant. Ki values were derived from IC50 or Ki^app using the equations Ki = Ki^app/(1 + […]) and IC50 = E0/2 + Ki^app, where Km represents the Michaelis–Menten constant, S denotes substrate concentration, and E0 indicates cathepsin concentration. The maximum inhibitor dose in the experiment was 50 μM. Measurements were conducted in multiple independent duplicates. Average values are listed.

CTSK = molecular target: T2, CTSK (Homo sapiens, UniProt P43235); assay: as above; type: biochemical; details: for Ki: irreversible inhibitors
T2 construct: made in house
T2 sequence (P43235 115-329): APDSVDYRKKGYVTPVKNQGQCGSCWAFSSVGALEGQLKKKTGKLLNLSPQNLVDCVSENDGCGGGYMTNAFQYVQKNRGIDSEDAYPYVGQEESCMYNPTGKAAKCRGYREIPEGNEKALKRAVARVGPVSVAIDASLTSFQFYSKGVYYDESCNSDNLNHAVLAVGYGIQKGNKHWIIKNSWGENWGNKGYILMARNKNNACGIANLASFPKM
Protocol: as §1

human osteoclasts = assay: TRAP staining, osteoclast number on bone slices; type: cell-based; details: inhibitor 1 or 5 μM
Protocol: Figure 6 CTSK inhibition in human osteoclasts. (a) Scheme of the process of maturation of osteoclasts (OCs) derived from human monocytes in the presence of RANKL and M-CSF. (b) Representative pictures of bone resorption after incubation with human OCs treated with vehicle or inhibitors for 10–14 days. Bone resorption was observed by a toluidine blue stain. Increased staining indicates a higher number of resorption pits and greater bone resorption. (c) Quantitative analysis of pit formation in bone slices after incubation with OC treated with GD20 or ODN (1, 5 μM) relative to vehicle treated slices. […] (e) Quantification of osteoclasts number on bone slices after inhibitor treatment, detected by TRAP staining. […] The activity of CTSK in the cells was detected by 2 h labeling with a pan-cathepsin activity-based probe, GB123, followed by a fluorescence scan of the SDS-PAGE detecting CTSK attached to the probe; the red arrow points to the bands of CTSK (above 25 kDa). […]
Blood was taken in an aseptic nontouch technique from consented human volunteers that were bled from the median cubital vein using a 21G needle, by the Declaration of Helsinki. […] The whole bone slice was analyzed by generating a panoramic view of the slice using stitching of images taken with an 20× magnification. […] And again, bone slice slices were imaged as was described before and counted using ImageJ software. […]

[1] = molecular target: T3, Recombinant human cathepsin S (Homo sapiens, UniProt P25774); assay: Recombinant cathepsin inhibition, gel-based competition with GB123 probe; type: biochemical; details: Figure 2, read-out: IC50 [μM] CTSS
T3 construct: made in house
T3 sequence (P25774 115-331): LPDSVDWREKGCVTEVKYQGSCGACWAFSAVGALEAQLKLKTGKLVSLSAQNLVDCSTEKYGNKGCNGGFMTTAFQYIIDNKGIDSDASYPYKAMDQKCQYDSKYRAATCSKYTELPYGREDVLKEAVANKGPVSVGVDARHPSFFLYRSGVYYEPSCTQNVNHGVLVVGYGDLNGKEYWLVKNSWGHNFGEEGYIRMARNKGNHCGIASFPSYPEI
Protocol: In-gel fluorescence analysis was used to detect the residual activity of the cathepsins by applying pan-cathepsin probe GB123 to detect the stable enzyme–probe complex. This approach is used for testing inhibition and selectivity.[37],[41]
Recombinant human cathepsin L (0.5 μM), cathepsin B (0.5 μM), cathepsin K (0.5 μM), and cathepsin S (0.5 μM) were pretreated with different concentrations of inhibitors (GD compounds, odanacatib) for 1 h in reaction buffer (50 mM acetate, 2 mM dithiothreitol (DTT), and 5 mM MgCl2, pH 5.5) at 37 °C. GB123 (1 μM) was added and incubated with samples for 60 min at 37 °C.[37],[41] The reaction was stopped by the addition of sample buffer 4× (40% glycerol, 0.2 M Tris/HCl pH 6.8, 20% β-mercaptoethanol, 12% SDS, and 0.4 mg/mL bromophenol blue). Samples were then boiled, separated on a 12.5% SDS gel, and scanned for fluorescence by a Typhoon scanner FLA 9500 at excitation and emission wavelengths of 635 and 670 nm for GB123.

T1 sequence (P25774 115-331): as above

SMILES	Ki (CTSS; maximum inhibitor dose 50 μM) [nM]	kinact (CTSK) [s⁻¹]	kinact/KI (CTSK) [M⁻¹ s⁻¹]	type of inhibition, CTSK (CTSK)	Ki (CTSK) [nM]	osteoclast numbers on bone slices (TRAP) (human osteoclasts)	IC50 [1] [µM]	type of inhibition, CTSS (CTSS)	Ki (CTSS; reversible) [nM]	IC50 (CTSK; reversible (tight binding)) [nM]	kinact (CTSS) [s⁻¹]	kinact/KI (CTSS) [M⁻¹ s⁻¹]	Ki (CTSS; irreversible inhibitor) [nM]
CC(C)C[C@H](N[C@@H](c1ccc(-c2ccc(S(C)(=O)=O)cc2)cc1)C(F)(F)F)C(=O)NCC(=O)COC(=O)[C@@H]1CCCN1C(=O)[C@H](CC(C)C)NC(=O)OCC1c2ccccc2-c2ccccc21 [GD20]	> 50000	0.0026	232000	irreversible	13	no significant alterations	13 ± 2.8						
CC(C)(F)C[C@H](N[C@@H](c1ccc(-c2ccc(S(C)(=O)=O)cc2)cc1)C(F)(F)F)C(=O)NC1(C#N)CC1 [ODN, odanacatib, reference compound]				reversible (tight binding)		increase		reversible	136	0.942			
CC(C)C[C@H](N[C@@H](c1ccc(-c2ccc(S(C)(=O)=O)cc2)cc1)C(F)(F)F)C(=O)NCC(=O)COC(=O)[C@@H]1CCCN1C(=O)[C@H](CCC(N)=O)NC(=O)OCC1c2ccccc2-c2ccccc21 [GD38]		0.0032	230000	irreversible	20.9		8.3 ± 2.3	irreversible			0.009	178	62000
